Results reported in patent US10617668B2, “Pharmaceutical formulations” (Janssen Pharmaceutica NV, priority 2010, dated 2020).

Assay: In vivo pharmacokinetics of oral formulations in healthy human subjects
Protocol: The three dose levels included 25 mg (representative formulation listed in Table 1.2), 200 mg (representative formulation listed in Table 1.3) and 400 mg of the drug compound.

mean AUCinf values across formulations and food conditions (all doses (25 mg, 200 mg and 400 mg), fed or fasting): comparable | effect of food on the extent of bioavailability (human subjects, fed versus fasted): no significant effect | half-life (human, plasma, oral, all treatment regimens regardless of formulation and food intake, read-out: mean t1/2): 8 to 12 h
SMILES: Cc1ccc(C2O[C@H](CO)[C@@H](O)[C@H](O)[C@H]2O)cc1Cc1ccc(-c2ccc(F)cc2)s1 (stereo partly drawn) [compound of Formula (I-S)]
